From US20240268385A1, “PEST CONTROL COMPOSITION” (DAIKIN INDUSTRIES, LTD., priority 2021, published 2024) come the findings set out here.

Like-named read-outs stand apart in the source and are kept apart here.

The subject of assay [1] is sheath blight fungi. The note with it: 500 ppm spray, rice plants at 5-leaf stage, 6 days in humid room.
Assay [2] has as its system brown blotch disease pathogens. The note with it: 500 ppm spray, cucumbers at 2-leaf stage, 8 days in humid room. The protocol: (§1) 9 parts by mass of a subagent of a formulation (xylene:DMF:Solpol 3005X (Toho Chemical Industry Co., Ltd.)=4:4:1) was mixed with 1 part by mass of dexmedetomidine (Wako) to prepare a 10% emulsion. A diluted solution of the 10% emulsion with a predetermined concentration was prepared by using a spreading agent, Grameen S (Toyo Green Co., Ltd.), diluted 10000-fold with water. Sample crops were individually sprayed with a sufficient amount of the diluted chemical solution by using a spray gun.
(§2) Preventive value=100−(damage in treated group/damage in untreated group)×100 (N)
Test Method for Brown Blotch Disease Pathogen
Cucumbers at the 2-leaf stage were sprayed with the chemical solution and inoculated with a spray of a spore suspension of brown blotch disease pathogens, and then placed in a humid room for 8 days. The area of lesions on leaves was measured, and the preventive value was calculated according to formula (N).

In assay [3] the test system is Frankliniella occidentalis (First-instar Larva). Kind of assay: whole plant or invertebrate. The note with it: in Brassica oleracea, 120 h. The protocol: as §1
(§3) Test Method for Bemisia tabaci (Adult) and Frankliniella Occidentalis (First-Instar Larva)
(§4) After the sample crops were sprayed with the chemical solution, they were air-dried, and then the leaves were cut and stored in cups. While test insects were released, the number of insects released was counted, and the cups were covered with a lid. The mortality rate was calculated from the number of surviving insects after 2 days for Bemisia tabaci and after 5 days for Frankliniella occidentalis. Their corrected mortality rate was calculated from the following formula:
(§5) Corrected mortality rate (%)=[(survival rate of untreated group−survival rate of treated group)/survival rate of untreated group]×100

The subject of assay [4] is Bemisia tabaci (Adult Insect). Description: whole plant or invertebrate. To be noted: in Brassica oleracea, 48 h. The procedure: as §1, §3, §4, §5
For assay [5], the system named is Nephotettix cincticeps (Three-instar Larva). Kind of assay: whole plant or invertebrate. To be noted: in Oryza sativa, 144 h. The procedure:
as §1
(§6) Test Method for Nilaparvata lugens (Third-Instar Larva) and Nephotettix cincticeps (Third-Instar Larvae)
(§7) After the sample crops were sprayed with the chemical solution, they were air-dried, and 10 test insects were released. To prevent the escape of the test insects, plants were covered with cups and nylon gauze. The mortality rate was calculated from the number of surviving insects after 6 days, and the corrected mortality rate was calculated from the following formula:
as §5

Assay [6] relates to Nilaparvata lugens (Three-instar Larva). Kind of assay: whole plant or invertebrate. To be noted: in Oryza sativa, 144 h. The procedure:
as §1, §6, §7, §5

Assay [7] concerns blast disease pathogens. To be noted: 500 ppm spray, rice seedlings at 2.5-leaf stage, 8 days in humid room. The protocol:
as §1
Test Method for Blast Disease Pathogen
Seedlings at the 2.5-leaf stage were sprayed with the chemical solution, and placed in a humid room for 8 days with blast disease pathogens, followed by measuring the area of lesions. The preventive value was calculated from the ratio to the untreated group according to the following formula (N):
as §2

For assay [8], the system named is phytophthora disease pathogens. To be noted: in vivo.
[9] abbreviates: read-out: Insect Mortality Rate.
Setting [10] is: read-out: Insect Mortality Rate (Corrected).

For the compound `Cc1cccc([C@H](C)c2cnc[nH]2)c1C` [Chemical Agent, dexmedetomidine], the “Sheath Blight Disease Lesion Elongation” value in assay [1] was determined as 3 mm. Moreover, in assay [1], the “Sheath Blight Disease Preventive Value” worked out at 98. Further, in assay [2], the “Brown Blotch Disease Expansion Area” value is listed as 2%. The “Brown Blotch Disease Preventive Value” in assay [2] was determined as 86. Also, the mortality at 100 ppm in assay [3] (setting [9]), in assay [3] (setting [10]), in assay [4] (setting [9]), in assay [4] (setting [10]), in assay [5] (setting [9]) and in assay [5] (setting [10]) was 100% each time. The mortality at 100 ppm in assay [6] (setting [9]) and in assay [6] (setting [10]) was 100% throughout. Further, the mortality at 500 ppm in assay [3] (setting [9]), in assay [3] (setting [10]), in assay [4] (setting [9]), in assay [4] (setting [10]), in assay [5] (setting [9]) and in assay [5] (setting [10]) was 100% in each case. Also, the mortality at 500 ppm in assay [6] (setting [9]) and in assay [6] (setting [10]) was 100% throughout. Moreover, the “Blast Disease Expansion Area Percentage” value in assay [7] is reported as 0%. Also, the “Blast Disease Preventive Value” in assay [7] turned out to be 100. For the same compound, the “Phytophthora Expansion Area” value in assay [8] worked out at 15%. In assay [8], the “Phytophthora Preventive Value” turned out to be 84.
